Patent publication US20050214285A1, “Epitopes or mimotopes derived from the C-epsilon-3 or C-epsilon-4 domains of IgE, antagonists thereof, and their therapeutic uses” (SmithKline Beecham Biologicals, s.a. and Peptide …, priority 1999, published 2005)
Where two headings read alike, the source gives them in different places. Positions of bridges follow the written chain, without caps; N, C: chain ends. Residues, ends and D or L forms follow the SMILES beside them. No end group written: not given here.

What was measured:
[1] = target: PTmAb0011; assay: BIAcore affinity to PTmAb0011; format: binding, mouse; conditions: for Kd: read-out: PTmAb BIAcore KD^Rel (μM) PTmAb0011
Excerpt: (§1) This involved a DNA sub-cloning transfer from the major coat protein (gVIIIp) filamentous phage display vector to a lower copy number minor phage coat protein (gIIIp) display vector with a random PCR step. […] Included in the tables are ranking orders and also BIAcore affinities where available.
(§2) Thus indicating the importance of correct presentation of the peptides of the present invention to adopt a shape which closely resembles the native target in the context of the whole IgE molecule. [drawing]

[2] = target: PTmAb0005; assay: BIAcore affinity to PTmAb0005; format: binding
Excerpt: as §1, §2

[3] = test system: PTmAb0005; assay: Phage display ranking of peptide ligands for PTmAb0005; format: binding; conditions: for Rank (ECL) PTmAb0005: primary phage display biopannings (Table 6); for PTmAb Rank 0005: IgEC67 mutants (Table 8); for Rel. Rank A / Rel. Rank B: IgEC67-8 mutants (Table 9)
Method: (§3) Phage display libraries were used to map the binding sites of the monoclonal antibodies using three different phage libraries, displaying either the XCX15, XCX10 or XAX10 peptide sequence (where X is any amino acid) at the N-terminus of the phage gVIIIp. Tables 6 and 7 show the results of selecting for peptide ligands with the anti human IgE monoclonal antibodies […]. […]
This was performed by introducing random mutations by PCR mutagenesis and sub-cloning into the Fuse 5 vector for minor filamentous phage protein gIIIp display. These, and other results, confirmed the importance of the amino acids within IgEC67 which aligned with the Cε2 epitope. […] Mutations in other sites had little effect on the affinity to PTmAb0005.
as §1

[4] = test system: PTmAb0011; assay: Phage display ranking of peptide ligands for PTmAb0011; format: binding, mouse; conditions: for Rank (ECL) PTmAb0011: primary phage display biopannings (Table 7); for PTmAb Rank 0011: IgEC67 mutants (Table 8)
Excerpt: as §3, §1

[5] = read-out: PTmAb BIAcore KD^Rel (μM) PTmAb0005

Compound | Rank (ECL) PTmAb0005 [3] | Rank (ECL) PTmAb0011 [4] | further results
CSCC[C@H](NC(=O)[C@H](CCC(N)=O)NC(=O)CNC(=O)[C@H](Cc1ccc(O)cc1)NC(=O)[C@@H](NC(=O)[C@H](CC(C)C)NC(=O)[C@H](CS)NC(=O)[C@@H](N)CCC(=O)O)C(C)C)C(=O)N[C@@H](C)C(=O)N[C@@H](CC(=O)O)C(=O)N[C@@H](CS)C(=O)N[C@@H](C)C(=O)N[C@@H](C)C(=O)NCC(=O)NCC(=O)N[C@@H](Cc1c[nH]c2ccccc12)C(=O)N1CCC[C@H]1C(=O)O [IgEC13] (H-ECLVYGQMADCAAGGWP-OH) | 5 | – | Kd [1]: > 1000 µM; Kd [2, 5]: > 1000 µM
CSCC[C@H](NC(=O)[C@H](CCC(N)=O)NC(=O)[C@H](CC(C)C)NC(=O)CNC(=O)[C@H](CCC(=O)O)NC(=O)[C@H](CC(C)C)NC(=O)[C@@H](NC(=O)[C@H](C)NC(=O)[C@H](CC(N)=O)NC(=O)[C@H](CS)NC(=O)[C@@H](N)CCC(N)=O)C(C)C)C(=O)N[C@H](C(=O)N[C@@H](CC(=O)O)C(=O)N[C@@H](Cc1c[nH]cn1)C(=O)N[C@@H](CS)C(=O)N[C@@H](Cc1c[nH]c2ccccc12)C(=O)N[C@@H](CC(N)=O)C(=O)O)C(C)C [IgEC26] (H-QCNAVLEGLQMVDHCWN-OH) | 43 | – | Kd [1]: 53.4 µM; Kd [2, 5]: 3 µM
CSCC[C@@H]1NC(=O)[C@H](C(C)C)NC(=O)[C@H](CCC(N)=O)NC(=O)CNC(=O)[C@H](CC(=O)O)NC(=O)[C@H](CCC(=O)O)NC(=O)[C@H](CC(C)C)NC(=O)[C@@H](NC(C)=O)CSSC[C@@H](C(=O)N2CCC[C@H]2C(=O)N[C@@H](CCCNC(=N)N)C(=O)N[C@@H](CCC(=O)O)C(=O)N[C@@H](C)C(=O)N[C@@H](C)C(=O)N[C@@H](CCC(=O)O)C(=O)NCC(=O)N[C@@H](CC(=O)O)C(=O)N[C@@H](CCCCNC(C)=O)C(N)=O)NC(=O)[C@H](CC(C)C)NC(=O)[C@H](CC(=O)O)NC(=O)[C@H](C(C)C)NC(=O)[C@H](CC(=O)O)NC1=O [PT1079] (Ac-CLEDGQVMDVDLCPREAAEGDK(Ac)-NH2; disulfide 1-13) | – | – | Kd ([2]; BIAcore, read-out: apparent affinity to PTmAb0005): 0.02 µM
ACFSRNGQVTDVPHSCY [EEC41] | – | 31 | –
ADGAACFMNKQMADLELCPRVAAEA [IgEC67-2] | – | – | PTmAb Rank 0011 [4]: 1.8; PTmAb Rank 0005 [3]: 3.2
ADGAECFMNKQLADSELCPRVAAEA [IgEC67-13] | – | – | PTmAb Rank 0011 [4]: 0.8; PTmAb Rank 0005 [3]: 1.1
ADGAGCFINKQLADLELCPREAAEA [IgEC67-12] | – | – | PTmAb Rank 0011 [4]: 1.9; PTmAb Rank 0005 [3]: 3
ADGAGCFINKQLADLELCPRVAAEA [IgEC67-3] | – | – | PTmAb Rank 0011 [4]: 1.7; PTmAb Rank 0005 [3]: 3
ADGAGCFKNKQMVDSELCARQAAEA [Peptide 1-16, IgEC67-8 mutant clone] | – | – | Rel. Rank A [3]: 1.14; Rel. Rank B [3]: 1.17
ADGAGCFMNKQLADLELCPREAAEA [IgEC67-7] | – | – | PTmAb Rank 0011 [4]: 1; PTmAb Rank 0005 [3]: 1
ADGAGCFMNKQLADLEMCPRDDAEA [IgEC67-9] | – | – | PTmAb Rank 0011 [4]: 2.4; PTmAb Rank 0005 [3]: 2.7
ADGAGCFMNKQLADPELCPREAEEA [IgEC67-4] | – | – | PTmAb Rank 0011 [4]: 1.3; PTmAb Rank 0005 [3]: 2.4
ADGAGCFMNKQLVDLELCPRGAAEA [IgEC67-5] | – | – | PTmAb Rank 0011 [4]: 1.6; PTmAb Rank 0005 [3]: 1.9
ADGAGCFMNKQMADLELCPREAAEA [IgEC67-10] | – | – | PTmAb Rank 0011 [4]: 2.3; PTmAb Rank 0005 [3]: 4.2
ADGAGCFMNKQMADLELCPRTAAEA [IgEC67-1] | – | – | PTmAb Rank 0011 [4]: 2.2; PTmAb Rank 0005 [3]: 4.1
ADGAGCFMNKQMADWEMCPRAAAEA [IgEC67-11] | – | – | PTmAb Rank 0011 [4]: 1.9; PTmAb Rank 0005 [3]: 1.8
ADGAGCFMNKQQADLELCPRGAAEA [IgEC67-14] | – | – | PTmAb Rank 0011 [4]: 0.9; PTmAb Rank 0005 [3]: 1.2
ADGAGCFMNNQLADWELCPRAAAEA [IgEC67-6] | – | – | PTmAb Rank 0011 [4]: 1.6; PTmAb Rank 0005 [3]: 1.9
ADGAGCFQNKQMADLELCPREAAEA [Peptide 1-5, IgEC67-8 mutant clone] | – | – | Rel. Rank A [3]: 1.13; Rel. Rank B [3]: 1.73
ADGAGCFRNKQMADLELCPREAAEA [Peptide 1-6, IgEC67-8 mutant clone] | – | – | Rel. Rank A [3]: 0.95; Rel. Rank B [3]: 1.16
ADGAGCSIHRQMADWERCLREGAEA [Peptide 6-10] | – | – | Rel. Rank A [3]: 0.91; Rel. Rank B [3]: 0.69

Compound | Rank (ECL) PTmAb0005 [3] | Rank (ECL) PTmAb0011 [4] | further results
ADGAGCSIHTQMADWERCLREGAEA [6-12,5-8] | – | – | Rel. Rank A [3]: 0.93; Rel. Rank B [3]: 0.67
AENDQMVDWEI [SB21/33/31] | 0 | – | –
CAPGMGCWESVK [ESB13] | 0 | – | –
CCESDIPLNELHALADP [IgEC70] | 0 | – | –
CCEVDDFPTHHPGWTLR [ESC4] | 0 | – | –
CCITDVPQGVMYKGSPD [ESC18] | 0 | – | –
CCKSDIPSPVTQFNTMK [IgEC64] | 0 | – | –
CCLSDDAPTLPVRR [IgEC75] | 0 | – | –
CCMADQELDLGHNAANA [ESC20] | 0 | – | –
CCMSDTPDISRLPVPDS [IgEC72] | 0 | – | –
CCMTDDPMDPNSTWAIR [ESC12] | 0 | – | –
CCMTDDPMYTNSTWAIR [ESC43] | 0 | – | –
CCQRDVELVFGS [ESD38] | 0 | – | –
CCRADFEVGNGG [ESD15] | 0 | – | –
CCVDDTPNSGLAMRVSK [ESC1] | 0 | – | –
CCVMDIEVRGSA [ESD14] | 0 | – | –
CCVMDLELASGF [ESD36] | 0 | – | –
CCVSDEPAGVRD [ESD6/10/40] | 0 | – | –
CLEDGQVMDVDCPREAAEGDK (disulfide 1-12 (inferred)) [PT1078, P1 mimotope] | – | – | binding of the peptide to PTmAb0011 compared with PT1079 [1]: reduced the binding; binding of the peptide to PTmAb0005 compared with PT1079 [2]: reduced the binding
CQAMDAEILNQV [ESB12] | 0 | – | –
DCEEPMCSPVLLQKLKP [EEC17/47/25] | – | 147 | –

Compound | Rank (ECL) PTmAb0005 [3] | Rank (ECL) PTmAb0011 [4] | further results
DCLSKGQMADLC [EED147/173] | – | 281 | –
DCVVDGDRLVCL [EED34/104] | – | 3 | –
ECKVDGQLSDSPLLRNN [ESC45] | 0 | – | –
ECNQNLSGSLRHVDLNC [EEC40] | – | 547 | –
ECPRWPLMGDGC [EED139] | – | 26 | –
ECRGPNMQMQDHCPTTD [IgEC9] | 10 | – | –
FCPEPICSPPLSRMTLS [EEC147] | – | 883 | –
GCPMWPQPDDEC [EED132] | – | 28 | –
GCPTWPRVGDHC [EED36] | – | 52 | –
GCQVGELVWCRE [EED134] | – | 14 | –
GGWQESDIPGR [ESB32] | 0 | – | –
GQMMDTELLNR [ESB1/6etc] | 0 | – | –
HCCRIDREVSGA [ESB24] | 0 | – | –
HCEEPEYSPATRVFCGR [EEC51/48/53] | – | 75 | –
HCKNEFKKGQWTYSCSD [IgEC43] | 0 | – | –
HCQQVFFPQDYLWCQRG [EEC36] | – | 158 | –
KCPTYPKPNDRCLWPVP [EEC135] | – | 19 | –
MCQGWEIVSECW [EED57] | – | 0 | –
NCNDNPMLDCMPAWSS [EEC5] | – | 0 | –
NCQDQMLREDAGCWSKI [EEC40A] | – | 80 | –
QCVRDGTRKVCM [EED33] | – | 7 | –

Compound | Rank (ECL) PTmAb0005 [3] | Rank (ECL) PTmAb0011 [4] | further results
QIDRQITDTLL [ESB15] | 0 | – | –
RCDQQLPRDSYTFCMMS [EEC115/3/48] | – | 438 | –
RCEQGALRCVGE [EED41/56] | – | 0 | –
RCQSARVVPECW [EED131/138/102] | – | 32 | –
REQQISDVPRV [ESB26] | 0 | – | –
RGRNQIMDLEI [ESB29/36] | 0 | – | –
SCAPSGDCGYKG [EED18/47/48] | – | 31 | –
SCNLNHQSCDIPPVKQI [ESC46] | 0 | – | –
SCQGREVRRECW [EED183] | – | 596 | –
SMEGQVRDIQV [ESB7] | 0 | – | –
SMGQEVDRELV [ESB40] | 0 | – | –
SMGQKVDRELV [ESB9] | 0 | – | –
TCCVTDIPPPDYEQSLG [IgEC83] | 0 | – | –
TCGQSELRCASLETHHV [EEC55] | – | 0 | –
TCLVDRQESDVC [EED50] | – | 6 | –
VCDECVSRELAL [EED35/53/164] | – | 330 | –
VCDECVSRELAL [EED35/153/164] | – | 118 | –
VCPPGWKNLGCN [EED51] | – | 0 | –
WCLEPECAPGLL [EED38] | – | 330 | –
YCPKYPLEGDCLLDNDY [EEC116] | – | 4 | –
YQQRDLELLAE [ESB18] | 0 | – | –
